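Dose response: 5 concentrations. Exposure: 48 h. Format: 96-well plates. Endpoint: linear interpolation; highest concentration if not reached. At the GI50, growth is halved.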 The source made the active and inactive calls. No stated cut-off is given here; in the data, active = GI50 up to about 1.1 µM and inactive = higher.
Legend:
Experiment in all cases: inhibition of tumour cell growth, NCI panel, 48 h
A549 = system: A549
HCT-116 = system: HCT-116
HOP-62 = system: HOP-62
HOP-92 = system: HOP-92
HT-29 = system: HT-29
Hs-578T = system: Hs-578T
LOX IMVI = system: LOX IMVI
MDA-MB-435 = system: MDA-MB-435
NCI-H460 = system: NCI-H460
NCI/ADR-RES = system: NCI/ADR-RES
OVCAR-8 = system: OVCAR-8
SF-268 = system: SF-268
SK-MEL-28 = system: SK-MEL-28
SK-OV-3 = system: SK-OV-3
SW-620 = system: SW-620
TK-10 = system: TK-10
U-251 = system: U-251
UACC-257 = system: UACC-257
UO-31 = system: UO-31
RPMI-8226 = system: RPMI-8226

Measured: GI50

Cc1[nH]n(C(=N)N)c(=O)c1CCO
inactive: A549 > 100 µM | HCT-116 > 100 µM | HOP-62 > 100 µM | HOP-92 > 100 µM | HT-29 > 100 µM | Hs-578T > 100 µM | LOX IMVI > 100 µM | MDA-MB-435 > 100 µM | NCI-H460 > 100 µM | NCI/ADR-RES 2.76 µM | OVCAR-8 1.68 µM | SF-268 > 100 µM | SK-MEL-28 > 100 µM | SK-OV-3 > 100 µM | SW-620 > 100 µM | TK-10 > 100 µM | U-251 > 100 µM | UACC-257 > 100 µM | UO-31 > 100 µM

COC(=O)c1ccc(/C=C(\c2ccc([N+](=O)[O-])o2)S(=O)(=O)c2ccc(NC(C)=O)cc2)o1
inactive: A549 16.7 µM | HCT-116 2.46 µM | HOP-62 14.4 µM | HOP-92 10.3 µM | HT-29 2.59 µM | Hs-578T 2.1 µM | MDA-MB-435 3.82 µM | NCI-H460 18.5 µM | NCI/ADR-RES 14.2 µM | OVCAR-8 3.42 µM | RPMI-8226 1.22 µM | SF-268 13.6 µM | SK-MEL-28 4.69 µM | SK-OV-3 19 µM | SW-620 3.63 µM | TK-10 4.97 µM | U-251 14.1 µM | UACC-257 1.98 µM | UO-31 4.49 µM

Cc1cc2c(Br)cc(Br)c(O)c2nc1C(=O)c1ccccc1
inactive: A549 14.4 µM | HCT-116 12.4 µM | HOP-62 14 µM | HT-29 28.4 µM | Hs-578T > 100 µM | LOX IMVI 10.4 µM | MDA-MB-435 43.1 µM | NCI-H460 10.6 µM | NCI/ADR-RES 4.01 µM | OVCAR-8 35 µM | RPMI-8226 22.4 µM | SF-268 28.3 µM | SK-MEL-28 > 62.7 µM | SW-620 55.8 µM | TK-10 28.4 µM | U-251 14.4 µM | UACC-257 24.5 µM | UO-31 12.2 µM

CC(=O)/N=C1\NC(=O)/C(=C/c2ccc(Cl)cc2Cl)N1C
inactive: A549 > 100 µM | HCT-116 30.8 µM | HOP-62 41.8 µM | HOP-92 83.8 µM | HT-29 52 µM | Hs-578T 23.1 µM | LOX IMVI 17.6 µM | MDA-MB-435 97.5 µM | NCI-H460 35.2 µM | NCI/ADR-RES 21.7 µM | OVCAR-8 31.6 µM | SF-268 56.6 µM | SK-OV-3 > 100 µM | SW-620 80.9 µM | TK-10 > 100 µM | U-251 19.5 µM | UACC-257 > 100 µM | UO-31 > 100 µM

COc1ccc(CC2c3cc(OC)c(OC)c(OC)c3CC[N+]2(C)C)cc1Oc1ccc(CC2c3cc4c(c(OC)c3CC[N+]2(C)C)OCO4)cc1 (centres undefined)
inactive: A549 34.4 µM | HCT-116 > 100 µM | HOP-92 > 100 µM | HT-29 > 100 µM | Hs-578T 80.9 µM | LOX IMVI > 100 µM | MDA-MB-435 > 100 µM | NCI-H460 > 100 µM | NCI/ADR-RES > 100 µM | OVCAR-8 > 100 µM | SF-268 > 100 µM | SK-MEL-28 > 100 µM | SK-OV-3 > 100 µM | SW-620 > 100 µM | TK-10 > 100 µM | U-251 > 100 µM | UACC-257 > 100 µM | UO-31 > 100 µM

O=C(OC1=CCN(Br)C1=O)C1=C(O)C(=O)N(Br)C1
inactive: A549 42.9 µM | HCT-116 17.8 µM | HOP-62 24 µM | Hs-578T 27 µM | LOX IMVI 20.9 µM | MDA-MB-435 33.1 µM | NCI-H460 38.3 µM | NCI/ADR-RES > 100 µM | OVCAR-8 31.3 µM | RPMI-8226 24.4 µM | SF-268 24.9 µM | SK-MEL-28 18.8 µM | SK-OV-3 21.5 µM | SW-620 26.5 µM | TK-10 33 µM | U-251 22.5 µM | UACC-257 26.9 µM | UO-31 45.4 µM

COP(=O)(OC)C(Nc1ccc(Cc2ccc(NC(c3ccco3)P(=O)(OC)OC)cc2)cc1)c1ccco1 (centres undefined)
inactive: A549 > 100 µM | HCT-116 35.9 µM | HOP-62 4.62 µM | HOP-92 6.47 µM | HT-29 > 100 µM | Hs-578T 11.4 µM | LOX IMVI 82.2 µM | MDA-MB-435 > 100 µM | NCI-H460 > 100 µM | NCI/ADR-RES > 100 µM | OVCAR-8 65.5 µM | SF-268 15.4 µM | SK-MEL-28 > 100 µM | SK-OV-3 18.8 µM | SW-620 > 100 µM | TK-10 8.77 µM | U-251 5.33 µM | UACC-257 > 100 µM | UO-31 79.1 µM

Cc1cc(S(=O)(=O)Nc2nc(N)n[nH]2)c(Cl)cc1Cl
inactive: A549 > 10 µM | HCT-116 > 10 µM | HOP-62 > 10 µM | HT-29 > 10 µM | Hs-578T > 10 µM | LOX IMVI > 10 µM | MDA-MB-435 > 10 µM | NCI-H460 > 10 µM | NCI/ADR-RES > 10 µM | OVCAR-8 > 10 µM | RPMI-8226 > 10 µM | SF-268 > 10 µM | SK-MEL-28 > 10 µM | SK-OV-3 > 10 µM | SW-620 > 10 µM | TK-10 > 10 µM | U-251 > 10 µM | UACC-257 > 10 µM

O=C(CCC=C(S(=O)(=O)c1ccccc1)S(=O)(=O)c1ccccc1)c1ccccc1
inactive: A549 17.1 µM | HCT-116 3.42 µM | HOP-62 16.8 µM | HOP-92 14.5 µM | HT-29 4.91 µM | Hs-578T 5.22 µM | LOX IMVI 3.26 µM | MDA-MB-435 5.25 µM | NCI-H460 12.9 µM | NCI/ADR-RES 4.06 µM | OVCAR-8 4.58 µM | SF-268 4.59 µM | SK-MEL-28 12.1 µM | SK-OV-3 25.4 µM | SW-620 3.4 µM | TK-10 6.38 µM | U-251 4.03 µM | UACC-257 8.91 µM | UO-31 6.15 µM

CC(=O)NC1(C)CCC(C(C)(C)NC(C)=O)CC1 (centres undefined)
inactive: A549 > 100 µM | HCT-116 > 100 µM | HOP-62 > 100 µM | HT-29 > 100 µM | Hs-578T > 100 µM | LOX IMVI > 100 µM | MDA-MB-435 > 100 µM | NCI-H460 > 100 µM | NCI/ADR-RES > 100 µM | OVCAR-8 > 100 µM | RPMI-8226 > 100 µM | SF-268 > 100 µM | SK-MEL-28 > 100 µM | SK-OV-3 > 100 µM | SW-620 > 100 µM | TK-10 > 100 µM | U-251 > 100 µM | UACC-257 > 100 µM | UO-31 > 100 µM

Brc1cccc[n+]1-c1ccc2cc(-[n+]3ccccc3Br)ccc2c1
inactive: A549 38.9 µM | HCT-116 39.6 µM | HOP-62 27.6 µM | HT-29 29.1 µM | Hs-578T 56.9 µM | LOX IMVI 16.3 µM | MDA-MB-435 80.9 µM | NCI-H460 30.2 µM | NCI/ADR-RES 53.3 µM | OVCAR-8 43 µM | RPMI-8226 19.5 µM | SF-268 31.8 µM | SK-MEL-28 > 100 µM | SK-OV-3 3.01 µM | SW-620 44.5 µM | TK-10 18.3 µM | U-251 15.6 µM | UACC-257 > 100 µM | UO-31 18.1 µM

Reference: ChEMBL document CHEMBL1201862, “PubChem BioAssay data set” (2004)
